In ChEMBL document CHEMBL2021885, “Triphenylbutanamines: kinesin spindle protein inhibitors with in vivo antitumor activity” (J Med Chem, 2012):
Active and inactive are the calls of the source. The calls are words filed in the database; no cut-off is given here.

Key:
[1] = Turbidimetric solubility of the compound at pH 7.4; assay type: physicochemical; conditions: buffer
[2] = Antitumor activity against human LXFS 538 cells xenografted in nu/nu nude Charles river mouse assessed as tumor volume doubling time at 20 mg/kg on days 0, 2 and 4 and 15 mg/kg on days 17, 19, 24 measured after 28 days (reference value: 8.8 days); assay type: functional
[3] = molecular target: Centromere-associated protein E (Homo sapiens) (UniProt Q02224); test: Inhibition of MT-stimulated CENP-E ATPase activity
[4] = molecular target: T1, Kinesin heavy chain isoform 5A (Homo sapiens) (UniProt Q12840); test: Inhibition of Kif5a ATPase activity
T1 sequence (whole entry): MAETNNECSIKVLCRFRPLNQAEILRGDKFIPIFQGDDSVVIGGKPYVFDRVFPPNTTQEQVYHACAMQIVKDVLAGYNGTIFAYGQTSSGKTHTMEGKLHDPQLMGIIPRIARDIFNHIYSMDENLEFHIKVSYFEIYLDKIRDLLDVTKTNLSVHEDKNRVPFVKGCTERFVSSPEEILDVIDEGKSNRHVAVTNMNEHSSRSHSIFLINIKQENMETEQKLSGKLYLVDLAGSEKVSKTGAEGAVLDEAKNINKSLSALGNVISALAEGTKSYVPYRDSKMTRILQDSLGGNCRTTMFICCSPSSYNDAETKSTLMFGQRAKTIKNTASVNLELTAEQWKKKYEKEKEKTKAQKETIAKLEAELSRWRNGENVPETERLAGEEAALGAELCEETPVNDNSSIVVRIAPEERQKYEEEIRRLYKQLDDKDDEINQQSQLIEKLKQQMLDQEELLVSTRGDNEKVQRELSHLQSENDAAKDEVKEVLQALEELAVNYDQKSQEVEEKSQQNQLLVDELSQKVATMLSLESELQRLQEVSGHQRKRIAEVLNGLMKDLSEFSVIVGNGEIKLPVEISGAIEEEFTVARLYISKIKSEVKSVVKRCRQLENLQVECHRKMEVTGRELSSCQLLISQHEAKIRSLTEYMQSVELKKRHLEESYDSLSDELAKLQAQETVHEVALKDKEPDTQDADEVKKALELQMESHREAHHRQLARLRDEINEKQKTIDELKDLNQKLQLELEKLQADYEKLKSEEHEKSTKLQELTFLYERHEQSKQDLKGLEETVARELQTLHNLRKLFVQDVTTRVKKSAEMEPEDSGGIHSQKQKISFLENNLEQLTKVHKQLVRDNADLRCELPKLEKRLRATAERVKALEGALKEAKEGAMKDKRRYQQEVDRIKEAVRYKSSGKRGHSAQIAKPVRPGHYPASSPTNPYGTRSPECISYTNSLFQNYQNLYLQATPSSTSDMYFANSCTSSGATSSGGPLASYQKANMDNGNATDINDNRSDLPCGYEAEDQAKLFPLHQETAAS

[5] = molecular target: Kinesin-like protein KIF20B (Homo sapiens) (UniProt Q96Q89); test: Inhibition of MT-stimulated MPP1 ATPase activity
[6] = molecular target: T2, Kinesin-like protein KIF20A (Homo sapiens) (UniProt O95235); test: Inhibition of MKLP2 ATPase activity
T2 sequence (whole entry): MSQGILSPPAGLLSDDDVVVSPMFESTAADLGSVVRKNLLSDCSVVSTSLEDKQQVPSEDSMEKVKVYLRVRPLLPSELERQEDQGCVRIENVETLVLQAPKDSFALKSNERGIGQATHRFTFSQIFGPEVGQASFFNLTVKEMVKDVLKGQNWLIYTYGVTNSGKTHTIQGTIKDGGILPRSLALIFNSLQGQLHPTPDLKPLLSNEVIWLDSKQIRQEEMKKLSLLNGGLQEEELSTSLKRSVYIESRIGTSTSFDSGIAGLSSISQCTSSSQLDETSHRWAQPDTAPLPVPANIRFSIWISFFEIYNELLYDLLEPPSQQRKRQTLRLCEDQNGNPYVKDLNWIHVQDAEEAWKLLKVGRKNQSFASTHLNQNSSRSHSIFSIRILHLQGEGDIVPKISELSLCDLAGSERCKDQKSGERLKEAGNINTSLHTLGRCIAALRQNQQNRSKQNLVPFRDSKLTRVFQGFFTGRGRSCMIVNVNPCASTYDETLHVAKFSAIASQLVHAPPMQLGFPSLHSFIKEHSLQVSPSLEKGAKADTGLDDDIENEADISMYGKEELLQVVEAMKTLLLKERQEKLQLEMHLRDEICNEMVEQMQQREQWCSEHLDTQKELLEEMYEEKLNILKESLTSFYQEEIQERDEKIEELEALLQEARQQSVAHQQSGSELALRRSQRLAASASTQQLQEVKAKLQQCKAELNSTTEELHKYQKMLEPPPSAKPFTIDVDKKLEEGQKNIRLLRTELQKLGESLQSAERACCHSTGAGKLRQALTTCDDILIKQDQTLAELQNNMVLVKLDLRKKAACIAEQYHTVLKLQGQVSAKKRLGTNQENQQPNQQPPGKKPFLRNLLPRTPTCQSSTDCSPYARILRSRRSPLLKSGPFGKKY

[7] = Antiproliferative activity against human hTERT-HME1 cells after 72 hrs by Alamar blue assay; assay type: cell-based
[8] = test system: HCT-116; test: Antiproliferative activity against human HCT116 cells after 72 hrs by Alamar blue assay; assay type: functional; conditions: HCT-116, 72 h
[9] = test system: BXPC-3; test: Antiproliferative activity against human BxPC3 cells after 72 hrs by Alamar blue assay; assay type: functional; conditions: BXPC-3, 72 h
[10] = Distribution coefficient, log D of the compound at pH 7.4; assay type: physicochemical; conditions: octanol/water, read-out: logD
[11] = molecular target: T1, Kinesin heavy chain isoform 5A (Homo sapiens); test: Inhibition of MT-stimulated Kif5a ATPase activity
[12] = molecular target: Centromere-associated protein E (Homo sapiens) (UniProt Q02224); test: Inhibition of CENP-E ATPase activity
[13] = test system: NCI-H1299; test: Antiproliferative activity against human NCI-H1299 cells after 72 hrs by Alamar blue assay; assay type: functional; conditions: NCI-H1299, 72 h
[14] = Lipophilicity, Log P of the compound; assay type: physicochemical; conditions: octanol/water; read-out: logP
[15] = Antitumor activity against human LXFS 538 cells xenografted in nu/nu nude Charles river mouse assessed as inhibition of tumor growth dosed at 20 mg/kg on days 0, 2 and 4 and 15 mg/kg on days 17, 19, 24 measured after 10 days; assay type: functional

Centromere-associated protein E (Homo sapiens), sequence (Q02224 whole entry, canonical isoform): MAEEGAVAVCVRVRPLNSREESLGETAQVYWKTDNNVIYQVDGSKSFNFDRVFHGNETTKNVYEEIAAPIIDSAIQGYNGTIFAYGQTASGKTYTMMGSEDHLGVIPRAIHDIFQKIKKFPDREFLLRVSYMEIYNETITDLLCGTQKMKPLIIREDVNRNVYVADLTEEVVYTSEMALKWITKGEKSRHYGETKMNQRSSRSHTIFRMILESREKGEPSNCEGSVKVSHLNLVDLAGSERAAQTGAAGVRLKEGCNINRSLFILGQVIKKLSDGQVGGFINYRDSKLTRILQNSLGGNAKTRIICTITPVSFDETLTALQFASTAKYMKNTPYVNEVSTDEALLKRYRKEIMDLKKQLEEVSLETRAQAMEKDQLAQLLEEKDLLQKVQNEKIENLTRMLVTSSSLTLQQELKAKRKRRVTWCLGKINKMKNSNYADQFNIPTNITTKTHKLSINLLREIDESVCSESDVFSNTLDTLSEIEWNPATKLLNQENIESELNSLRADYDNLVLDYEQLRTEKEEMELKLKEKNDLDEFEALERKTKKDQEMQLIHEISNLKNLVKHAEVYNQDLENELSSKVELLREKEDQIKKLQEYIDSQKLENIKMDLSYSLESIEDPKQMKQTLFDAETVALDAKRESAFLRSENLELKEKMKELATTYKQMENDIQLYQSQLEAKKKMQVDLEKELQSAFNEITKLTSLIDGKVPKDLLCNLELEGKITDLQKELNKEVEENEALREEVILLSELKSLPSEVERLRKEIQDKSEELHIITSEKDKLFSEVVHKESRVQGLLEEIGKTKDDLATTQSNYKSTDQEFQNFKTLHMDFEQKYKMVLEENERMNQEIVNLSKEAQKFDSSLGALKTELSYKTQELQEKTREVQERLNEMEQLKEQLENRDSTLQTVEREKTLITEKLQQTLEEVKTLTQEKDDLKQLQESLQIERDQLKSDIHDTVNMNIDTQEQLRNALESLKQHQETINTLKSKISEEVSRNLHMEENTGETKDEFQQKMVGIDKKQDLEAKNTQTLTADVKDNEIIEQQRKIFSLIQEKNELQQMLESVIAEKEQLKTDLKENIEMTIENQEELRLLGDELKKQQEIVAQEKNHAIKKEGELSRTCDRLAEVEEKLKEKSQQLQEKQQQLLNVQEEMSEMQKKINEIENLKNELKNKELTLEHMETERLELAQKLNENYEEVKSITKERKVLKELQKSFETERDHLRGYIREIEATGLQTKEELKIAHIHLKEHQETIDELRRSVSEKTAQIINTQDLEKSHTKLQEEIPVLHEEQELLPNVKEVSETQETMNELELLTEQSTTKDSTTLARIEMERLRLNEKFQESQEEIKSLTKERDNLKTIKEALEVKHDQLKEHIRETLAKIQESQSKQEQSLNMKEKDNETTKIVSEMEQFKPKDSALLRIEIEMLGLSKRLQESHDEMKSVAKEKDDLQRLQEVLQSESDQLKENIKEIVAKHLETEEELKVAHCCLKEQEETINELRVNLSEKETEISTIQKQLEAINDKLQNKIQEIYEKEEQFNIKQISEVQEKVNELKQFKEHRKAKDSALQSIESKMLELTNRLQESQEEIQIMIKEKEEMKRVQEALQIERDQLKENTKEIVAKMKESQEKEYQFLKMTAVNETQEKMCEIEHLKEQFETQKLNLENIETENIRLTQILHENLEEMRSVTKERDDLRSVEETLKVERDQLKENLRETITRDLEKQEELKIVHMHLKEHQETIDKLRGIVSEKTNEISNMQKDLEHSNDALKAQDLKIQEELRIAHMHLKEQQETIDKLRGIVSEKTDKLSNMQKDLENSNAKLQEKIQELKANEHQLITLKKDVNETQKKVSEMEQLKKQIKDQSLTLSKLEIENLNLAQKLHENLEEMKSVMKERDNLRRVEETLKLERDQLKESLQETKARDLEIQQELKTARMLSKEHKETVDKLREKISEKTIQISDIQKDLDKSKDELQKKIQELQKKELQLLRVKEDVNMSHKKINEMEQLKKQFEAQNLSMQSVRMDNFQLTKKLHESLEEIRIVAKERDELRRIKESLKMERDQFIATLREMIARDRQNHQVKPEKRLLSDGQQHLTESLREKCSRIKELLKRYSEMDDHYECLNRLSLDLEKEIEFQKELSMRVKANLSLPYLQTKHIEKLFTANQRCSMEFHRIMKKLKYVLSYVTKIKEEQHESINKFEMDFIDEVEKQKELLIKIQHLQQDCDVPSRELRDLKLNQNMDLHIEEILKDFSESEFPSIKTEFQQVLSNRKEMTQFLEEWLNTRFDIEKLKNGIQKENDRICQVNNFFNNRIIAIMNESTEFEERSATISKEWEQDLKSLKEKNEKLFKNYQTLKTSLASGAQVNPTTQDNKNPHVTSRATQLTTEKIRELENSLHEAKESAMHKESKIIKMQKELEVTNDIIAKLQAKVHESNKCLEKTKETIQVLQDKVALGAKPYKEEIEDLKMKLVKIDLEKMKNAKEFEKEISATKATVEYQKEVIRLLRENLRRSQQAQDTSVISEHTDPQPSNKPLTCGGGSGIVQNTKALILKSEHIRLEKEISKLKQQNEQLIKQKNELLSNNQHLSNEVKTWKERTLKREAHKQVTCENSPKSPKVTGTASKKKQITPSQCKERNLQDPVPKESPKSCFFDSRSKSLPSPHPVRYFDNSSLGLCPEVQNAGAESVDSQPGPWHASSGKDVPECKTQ
Kinesin-like protein KIF20B (Homo sapiens), sequence (Q96Q89 whole entry): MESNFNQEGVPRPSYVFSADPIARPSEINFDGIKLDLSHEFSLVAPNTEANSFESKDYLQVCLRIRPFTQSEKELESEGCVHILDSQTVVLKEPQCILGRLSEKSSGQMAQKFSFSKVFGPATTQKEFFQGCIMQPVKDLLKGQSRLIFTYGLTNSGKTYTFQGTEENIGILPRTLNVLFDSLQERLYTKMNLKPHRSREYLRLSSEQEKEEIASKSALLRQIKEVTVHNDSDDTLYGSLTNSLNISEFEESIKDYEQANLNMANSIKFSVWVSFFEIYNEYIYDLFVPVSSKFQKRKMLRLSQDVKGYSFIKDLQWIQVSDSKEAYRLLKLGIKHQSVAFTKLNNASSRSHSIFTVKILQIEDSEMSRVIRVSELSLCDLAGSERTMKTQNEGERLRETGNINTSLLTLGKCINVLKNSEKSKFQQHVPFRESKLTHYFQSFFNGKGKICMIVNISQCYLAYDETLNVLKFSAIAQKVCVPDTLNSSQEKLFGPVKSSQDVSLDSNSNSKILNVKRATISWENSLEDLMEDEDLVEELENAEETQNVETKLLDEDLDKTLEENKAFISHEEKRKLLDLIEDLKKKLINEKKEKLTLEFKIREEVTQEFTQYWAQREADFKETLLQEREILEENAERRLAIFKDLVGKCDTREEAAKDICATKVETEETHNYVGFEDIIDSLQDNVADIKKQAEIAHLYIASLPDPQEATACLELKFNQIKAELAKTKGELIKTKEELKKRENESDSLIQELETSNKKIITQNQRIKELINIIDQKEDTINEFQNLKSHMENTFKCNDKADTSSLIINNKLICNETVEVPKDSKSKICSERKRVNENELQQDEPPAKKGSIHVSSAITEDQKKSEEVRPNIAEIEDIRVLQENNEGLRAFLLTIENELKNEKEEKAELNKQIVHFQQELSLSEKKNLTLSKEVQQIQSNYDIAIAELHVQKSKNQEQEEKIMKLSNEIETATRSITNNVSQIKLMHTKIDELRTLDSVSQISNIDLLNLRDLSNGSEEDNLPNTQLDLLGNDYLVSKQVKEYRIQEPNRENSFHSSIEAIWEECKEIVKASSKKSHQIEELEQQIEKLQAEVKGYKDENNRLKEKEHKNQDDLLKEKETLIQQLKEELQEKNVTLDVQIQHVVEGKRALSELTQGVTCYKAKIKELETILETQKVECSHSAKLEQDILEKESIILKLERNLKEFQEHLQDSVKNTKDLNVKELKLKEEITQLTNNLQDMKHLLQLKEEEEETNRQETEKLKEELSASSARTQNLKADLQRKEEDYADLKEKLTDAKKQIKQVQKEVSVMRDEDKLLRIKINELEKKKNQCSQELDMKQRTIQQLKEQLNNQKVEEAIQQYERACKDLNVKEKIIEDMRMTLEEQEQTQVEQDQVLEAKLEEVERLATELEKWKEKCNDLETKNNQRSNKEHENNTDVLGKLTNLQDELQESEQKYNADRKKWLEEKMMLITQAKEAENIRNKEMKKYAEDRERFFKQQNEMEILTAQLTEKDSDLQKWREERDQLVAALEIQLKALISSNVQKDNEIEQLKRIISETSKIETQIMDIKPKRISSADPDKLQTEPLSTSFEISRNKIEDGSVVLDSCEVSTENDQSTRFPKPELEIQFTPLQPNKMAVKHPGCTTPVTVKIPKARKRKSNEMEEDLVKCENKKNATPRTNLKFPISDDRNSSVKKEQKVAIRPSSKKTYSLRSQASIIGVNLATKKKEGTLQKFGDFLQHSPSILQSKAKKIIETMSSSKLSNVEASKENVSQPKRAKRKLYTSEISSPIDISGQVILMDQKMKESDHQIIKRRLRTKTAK

Cc1cccc(C(CCC(N)C(=O)O)(c2ccccc2)c2ccccc2)c1 (racemic)
solubility kinetic [1]: > 100 µM
Time [2]: 28.7 days
inhibition [3]: inactive
inhibition [4]: inactive
inhibition [5]: inactive
inhibition [6]: inactive
GI50 at 72 h [7]: 38 nM
GI50 [8]: 99 nM
GI50 [9]: 144 nM
logD [10]: 2.45
inhibition [11]: inactive
inhibition [12]: inactive
GI50 [13]: 137 nM
logP [14]: 2.45
T/C [15]: 26.3%
